The text below walks through data of patent US7081460B2, “Quinazoline and quinazoline-like compounds for the treatment of integrin-mediated disorders” (Ortho-McNeil Pharmaceutical, Inc., priority 2001, dated 2006).

In assay [1] the target is T1, Human αvβ3 (Homo sapiens, UniProt P05106+P06756).
T1 construct: purchased Chemicon International Inc., Temecula, Calif
Briefly: In vitro solid phase purified αvβ3 binding assay (vitronectin/αvβ3). The settings on record: isolated human αvβ3, 5 nM vitronectin; read-out: αvβ3 Binding IC50. How it is done: (§1) In vitro Solid Phase Purified αvβ3 Binding Assay The vitronectin/αvβ3 binding assay methods were derived from Mehta et al. (Biochem J. 1998, 330, 861). Human αvβ3 (Chemicon International Inc., Temecula, Calif.), at a concentration of 1 μg/ml dissolved in Tris buffer (20 mM Tris, 1 mM CaCl2, 1 mM MgCl2, 10 μM MnCl2, 150 mM NaCl), was immobilized on Immulon 96 well plates (Dynex Technologies, Chantilly, Va.) overnight at 4° C. Plates were washed and treated with blocking buffer (3% BSA in Tris buffer) for 2 h at 37 C. Plates were then rinsed 2 times in Tris buffer containing 0.3% BSA and 0.2% Tween20 (polyoxyethylenesorbitan monolaurate). Five minutes prior to the addition of 5 nM vitronectin (Sigma, St. Louis, Mo.), compounds of the invention were added to wells in duplicate. Each plate included c-RGDfV as an internal control. Following a 3 hour incubation at 37° C., plates were washed 5 times in assay buffer. An anti-human vitronectin IgG rabbit polyclonal antibody (Calbiochem, San Diego, Calif.) was added (1:2000) and plates were incubated for 1 hour at room temperature. VectaStain ABC peroxidase kit reagents (Vector Laboratories, Burlingame, Calif.) employing a biotin labeled anti-rabbit IgG, were utilized for detection of bound antibody. Plates were read at 490 nm on a Molecular Devices (Sunnyvale, Calif.) microplate reader. […] The plate was covered and incubated overnight at 4° C. The GPIIb/IIIa solution was discarded and 150 μl of 5% BSA was added and incubated at RT for 1–3 h. The plate was washed extensively with modified Tyrodes buffer. Biotinylated fibrinogen (25 μl/well) at 2× final concentration was added to the wells that contain the test compounds (25 μl/well). The plate was covered and incubated at RT for 2–4 h. Twenty minutes prior to incubation completion, one drop of Reagent A (VectaStain ABC Horse Radish Peroxidase kit, Vector Laboratories, Inc.) and one drop Reagent B were added with mixing to 5 mL modified Tyrodes buffer mix and let stand. The ligand solution was discarded and the plate washed (5×200 μl/well) with modified Tyrodes buffer. Vecta Stain HRP-Biotin-Avidin reagent (50 μl/well, as prepared above) was added and incubated at RT for 15 min. The Vecta Stain solution was discarded and the wells washed (5×200 μl/well) with modified Tyrodes buffer. Developing buffer (10 mL of 50 mM citrate/phosphate buffer @ pH 5.3, 6 mg o-phenylenediamine, 6 μl 30% H2O2; 50 μl/well) was added and incubated at rt for 3–5 min, and then 2 N H2SO4 (50 μl/well) was added. The absorbance was read at 490 nm.

Assay [2] deals with GPIIb/IIIa (Homo sapiens, UniProt P05106+P08514). Put plainly: In vitro solid phase purified glycoprotein IIb/IIIa binding assay (biotinylated fibrinogen). The settings on record: RGD-affinity purified GPIIb/IIIa, biotinylated fibrinogen; read-out: GPIIb/IIIa Binding IC50. How it is done: as §1
GPIIb/IIIa, sequence (P08514 32-887 limits assumed): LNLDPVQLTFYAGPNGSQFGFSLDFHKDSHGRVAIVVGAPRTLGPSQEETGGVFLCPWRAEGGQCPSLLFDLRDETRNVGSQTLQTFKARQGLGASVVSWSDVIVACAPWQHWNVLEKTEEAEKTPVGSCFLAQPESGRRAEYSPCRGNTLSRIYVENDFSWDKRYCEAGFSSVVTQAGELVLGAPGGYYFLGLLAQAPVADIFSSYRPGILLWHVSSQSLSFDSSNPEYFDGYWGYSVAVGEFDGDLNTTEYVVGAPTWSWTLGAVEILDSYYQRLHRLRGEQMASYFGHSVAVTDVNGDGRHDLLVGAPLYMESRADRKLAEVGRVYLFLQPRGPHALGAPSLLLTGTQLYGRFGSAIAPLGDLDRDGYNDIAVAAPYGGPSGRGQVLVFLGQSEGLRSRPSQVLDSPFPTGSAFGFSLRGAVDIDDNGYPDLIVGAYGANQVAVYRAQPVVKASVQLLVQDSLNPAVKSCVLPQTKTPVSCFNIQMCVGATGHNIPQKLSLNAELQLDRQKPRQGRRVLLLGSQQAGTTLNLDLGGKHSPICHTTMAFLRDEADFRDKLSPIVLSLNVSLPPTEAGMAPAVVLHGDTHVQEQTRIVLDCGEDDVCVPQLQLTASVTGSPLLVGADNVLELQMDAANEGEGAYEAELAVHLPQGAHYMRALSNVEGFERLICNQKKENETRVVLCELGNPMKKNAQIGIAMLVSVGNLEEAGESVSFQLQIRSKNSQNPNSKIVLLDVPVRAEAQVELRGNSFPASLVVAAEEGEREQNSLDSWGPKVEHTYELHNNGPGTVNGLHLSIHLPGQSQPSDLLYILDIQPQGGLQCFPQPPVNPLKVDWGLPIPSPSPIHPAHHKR
GPIIb/IIIa, sequence (P08514 891-1039 partner limits assumed): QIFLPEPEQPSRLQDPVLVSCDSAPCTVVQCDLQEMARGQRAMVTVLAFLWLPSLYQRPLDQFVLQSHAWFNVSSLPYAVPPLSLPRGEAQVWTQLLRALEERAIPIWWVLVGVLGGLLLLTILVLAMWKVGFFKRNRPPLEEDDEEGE
GPIIb/IIIa, sequence (P05106 27-788): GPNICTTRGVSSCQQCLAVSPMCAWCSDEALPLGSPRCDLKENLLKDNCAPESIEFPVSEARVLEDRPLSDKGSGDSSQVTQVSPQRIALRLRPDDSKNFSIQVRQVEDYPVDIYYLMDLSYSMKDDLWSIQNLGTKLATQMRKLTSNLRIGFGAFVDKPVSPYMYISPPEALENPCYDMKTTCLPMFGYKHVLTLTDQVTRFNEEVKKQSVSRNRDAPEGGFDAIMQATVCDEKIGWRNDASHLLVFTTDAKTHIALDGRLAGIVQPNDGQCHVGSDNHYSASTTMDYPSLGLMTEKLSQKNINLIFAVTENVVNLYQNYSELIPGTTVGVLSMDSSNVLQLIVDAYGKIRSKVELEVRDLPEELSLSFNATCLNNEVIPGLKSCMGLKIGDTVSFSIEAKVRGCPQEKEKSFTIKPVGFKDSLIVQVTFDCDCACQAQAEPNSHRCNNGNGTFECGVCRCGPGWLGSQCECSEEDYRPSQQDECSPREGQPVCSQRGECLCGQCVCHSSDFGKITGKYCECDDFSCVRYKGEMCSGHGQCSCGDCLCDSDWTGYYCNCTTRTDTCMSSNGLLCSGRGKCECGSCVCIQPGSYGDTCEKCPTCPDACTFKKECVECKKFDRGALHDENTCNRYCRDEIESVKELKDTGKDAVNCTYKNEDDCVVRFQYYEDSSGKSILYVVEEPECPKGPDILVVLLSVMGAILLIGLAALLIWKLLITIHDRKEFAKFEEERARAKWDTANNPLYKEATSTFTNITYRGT

T1 sequence (P06756 31-889 limits assumed): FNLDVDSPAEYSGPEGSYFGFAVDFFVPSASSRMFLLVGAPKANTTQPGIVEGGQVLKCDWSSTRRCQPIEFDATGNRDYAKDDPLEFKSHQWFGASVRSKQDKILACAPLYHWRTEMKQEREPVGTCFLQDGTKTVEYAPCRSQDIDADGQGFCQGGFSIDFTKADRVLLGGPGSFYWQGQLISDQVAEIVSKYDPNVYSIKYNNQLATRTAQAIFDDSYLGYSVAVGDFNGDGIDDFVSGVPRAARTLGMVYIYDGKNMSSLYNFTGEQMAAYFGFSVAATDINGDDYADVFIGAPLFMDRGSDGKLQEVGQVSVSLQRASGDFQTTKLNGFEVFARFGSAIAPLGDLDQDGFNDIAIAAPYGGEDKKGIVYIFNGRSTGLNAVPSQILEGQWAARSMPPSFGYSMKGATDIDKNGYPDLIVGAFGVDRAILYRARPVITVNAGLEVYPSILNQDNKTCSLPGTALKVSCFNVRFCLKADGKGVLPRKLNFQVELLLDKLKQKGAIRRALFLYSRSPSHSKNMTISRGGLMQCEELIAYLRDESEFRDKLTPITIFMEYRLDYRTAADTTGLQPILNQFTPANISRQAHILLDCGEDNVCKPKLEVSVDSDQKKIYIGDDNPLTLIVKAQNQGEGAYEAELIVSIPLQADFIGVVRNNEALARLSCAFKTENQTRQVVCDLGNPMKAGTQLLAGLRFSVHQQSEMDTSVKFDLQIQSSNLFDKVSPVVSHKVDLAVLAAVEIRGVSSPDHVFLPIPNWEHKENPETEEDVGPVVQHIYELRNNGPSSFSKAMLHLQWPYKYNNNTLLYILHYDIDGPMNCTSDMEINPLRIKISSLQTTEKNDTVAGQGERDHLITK
T1 sequence (P06756 891-1048 partner limits assumed): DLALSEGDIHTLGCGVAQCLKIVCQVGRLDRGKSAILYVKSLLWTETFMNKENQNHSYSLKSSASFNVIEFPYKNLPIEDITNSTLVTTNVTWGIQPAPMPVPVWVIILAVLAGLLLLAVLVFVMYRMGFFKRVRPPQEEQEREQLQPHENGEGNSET
T1 sequence (P05106 27-788): as the sequence (P05106 27-788) above

In the case of “6-[(1E)-3-[(4,5-dihydro-1H-imidazol-2-yl)amino]-1-propenyl]-(αS)-3,4-dihydro-4-oxo-α-[[[(E)-2-phenylethenyl]sulfonyl]amino]-2-quinazolinepropanoic Acid [Compound 7]”, the results for the IC50 in assay [1] and in assay [2] were 7 nM and 330 nM, respectively.

“6-[(1E)-4-[[(aminoiminomethyl)amino]oxy]-1-butenyl]-(αS)-3,4-dihydro-4-oxo-α-[[(2,3,4,5,6-pentamethylphenyl)sulfonyl]amino]-2-quinazolinepropanoic Acid [Compound 16]”: the values for the IC50 in assay [1] and in assay [2] were 268 nM and 36 nM, respectively.

`Cc1c(C)c(C)c(S(=O)(=O)N[C@@H](Cc2nc3ccc(/C=C/CNC4=NCCN4)cc3c(=O)[nH]2)C(=O)O)c(C)c1C` [Compound 1, 6-[(1E)-3-[(4,5-dihydro-1H-imidazol-2-yl)amino]-1-propenyl]-(αS)-3,4-dihydro-4-oxo-α-[[(2,3,4,5,6-pentamethylphenyl)sulfonyl]amino]-2-quinazolinepropanoic Acid]: the IC50 in assay [1] was 0.75 nM; in assay [2] it was 24 nM.

Take `O=C(N[C@@H](Cc1nc2ccc(/C=C/CNC3=NCCN3)cc2c(=O)[nH]1)C(=O)O)OCc1ccccc1` [Compound 2, 6-[(1E)-3-[(4,5-dihydro-1H-imidazol-2-yl)amino]-1-propenyl]-(αS)-3,4-dihydro-4-oxo-α-[[(phenylmethoxy)carbonyl]amino]-2-quinazolinepropanoic Acid]: the figures for the IC50 in assay [1] and in assay [2] were 55 nM and 560 nM, respectively.

Regarding `Cc1cc(C)c(S(=O)(=O)N[C@@H](Cc2nc3ccc(/C=C/CNC4=NCCN4)cc3c(=O)[nH]2)C(=O)O)c(C)c1` [Compound 3, 6-[(1E)-3-[(4,5-dihydro-1H-imidazol-2-yl)amino]-1-propenyl]-(αS)-3,4-dihydro-4-oxo-a-[[(2,4,6-trimethylphenyl)sulfonyl]amino]-2-quinazolinepropanoic Acid], the IC50 in assay [1] was determined as 3.2 nM; in assay [2] it was 78 nM.

For the compound `O=C(O)[C@H](Cc1nc2ccc(/C=C/CNC3=NCCN3)cc2c(=O)[nH]1)NS(=O)(=O)c1cccc2cccnc12` [Compound 4, 6-[(1E)-3-[(4,5-dihydro-1H-imidazol-2-yl)amino]-1-propenyl]-(αS)-3,4-dihydro-4-oxo-α-[(8-quinolinylsulfonyl)amino]-2-quinazolinepropanoic Acid], the figures for the IC50 in assay [1] and in assay [2] were 14 nM and 320 nM, respectively.

For the compound `O=C(O)[C@H](Cc1nc2ccc(/C=C/CNC3=NCCN3)cc2c(=O)[nH]1)NS(=O)(=O)CCc1cccc2ccccc12` [Compound 5, 6-[(1E)-3-[(4,5-dihydro-1H-imidazol-2-yl)amino]-1-propenyl]-(αS)-3,4-dihydro-α-[[[2-(1-naphthalenyl)ethyl]sulfonyl]amino]-4-oxo-2-quinazolinepropanoic Acid], the values for the IC50 in assay [1] and in assay [2] were 8.6 nM and 670 nM, respectively.

`O=C(O)[C@H](Cc1nc2ccc(/C=C/CNC3=NCCN3)cc2c(=O)[nH]1)NS(=O)(=O)c1ccc(-c2ccccn2)s1` [Compound 6, 6-[(1E)-3-[(4,5-dihydro-1H-imidazol-2-yl)amino]-1-propenyl]-(αS)-3,4-dihydro-4-oxo-α-[[[5-(2-pyridinyl)-2-thienyl]sulfonyl]amino]-2-quinazolinepropanoic Acid]: the IC50 was 5.3 nM in assay [1] and 41 nM in assay [2].

For the compound `O=C(N[C@@H](Cc1nc2ccc(/C=C/CCNC3=NCCN3)cc2c(=O)[nH]1)C(=O)O)OCc1ccccc1` [Compound 8, 6-[(1E)-4-[(4,5-dihydro-1H-imidazol-2-yl)amino]-1-butenyl]-(αS)-3,4-dihydro-4-oxo-α-[[(phenylmethoxy)carbonyl]amino]-2-quinazolinepropanoic Acid], the results for the IC50 in assay [1] and in assay [2] were 210 nM and 580 nM, respectively.

In the case of `O=C(N[C@@H](Cc1nc2ccc(-c3cccc(NC4=NCCN4)c3)cc2c(=O)[nH]1)C(=O)O)OCc1ccccc1` [Compound 9, 6-[3-[(4,5-dihydro-1H-imidazol-2-yl)amino]phenyl]-(αS)-3,4-dihydro-4-oxo-α-[[(phenylmethoxy)carbonyl]amino]-2-quinazolinepropanoic Acid], the IC50 in assay [1] was above 5000 nM; in assay [2], 88 nM.

Take `Cc1c(C)c(C)c(S(=O)(=O)N[C@@H](Cc2nc3ccc(/C=C/CNc4ccccn4)cc3c(=O)[nH]2)C(=O)O)c(C)c1C` [Compound 10, (αS)-3,4-dihydro-4-oxo-α-[[(2,3,4,5,6-pentamethylphenyl)sulfonyl]amino]-6-[(1E)-3-(2-pyridinylamino)-1-propenyl]-2-quinazolinepropanoic Acid]: the values for the IC50 in assay [1] and in assay [2] were 6.1 nM and 640 nM, respectively.

Turning to `Cc1c(C)c(C)c(S(=O)(=O)N[C@@H](Cc2nc3ccc(CCCNc4ccccn4)cc3c(=O)[nH]2)C(=O)O)c(C)c1C` [Compound 11, (αS)-3,4-dihydro-4-oxo-α-[[(2,3,4,5,6-pentamethylphenyl)sulfonyl]amino]-6-[3-(2-pyridinylamino)propyl]-2-quinazolinepropanoic Acid], the IC50 is 9.6 nM in assay [1] and 640 nM in assay [2].

Turning to `O=C(Nc1ccccc1)N[C@@H](Cc1nc2ccc(/C=C/CNc3ccccn3)cc2c(=O)[nH]1)C(=O)O` [Compound 12, (αS)-3,4-dihydro-4-oxo-α-[[(phenylamino)carbonyl]amino]-6-[(E)-3-(2-pyridinylamino)-1-propenyl]-2-quinazolinepropanoic Acid], the IC50 was above 500 nM in assay [1] and 18000 nM in assay [2].

With `Cc1c(C)c(C)c(S(=O)(=O)N[C@@H](Cc2nc3ccc(/C=C/CNC(=O)Nc4ccccc4)cc3c(=O)[nH]2)C(=O)O)c(C)c1C` [Compound 13, (αS)-3,4-dihydro-4-oxo-α-[[(2,3,4,5,6-pentamethylphenyl)sulfonyl]amino]-6-[(1E)-3-[[(phenylamino)carbonyl]amino]-1-propenyl]-2-quinazolinepropanoic Acid], the IC50 in assay [1] worked out at 140 nM; in assay [2], 1700 nM.

In the case of `Cc1c(C)c(C)c(S(=O)(=O)N[C@H](CC(=O)O)c2nc3ccc(/C=C/CNc4ccccn4)cc3c(=O)[nH]2)c(C)c1C` [Compound 14, (βR)-3,4-dihydro-4-oxo-β-[[(2,3,4,5,6-pentamethylphenyl)sulfonyl]amino]-6-[(1E)-3-(2-pyridinylamino)-1-propenyl]-2-quinazolinepropanoic Acid], the figures for the IC50 in assay [1] and in assay [2] were 25 nM and 1800 nM, respectively.

As to `Cc1c(C)c(C)c(S(=O)(=O)N[C@@H](Cc2nc3ccc(/C=C/CNC4=NCCC4)cc3c(=O)[nH]2)C(=O)O)c(C)c1C` [Compound 15, 6-[(1E)-3-[(3,4-dihydro-2H-pyrrol-5-yl)amino]-1-propenyl]-(αS)-3,4-dihydro-4-oxo-α-[[(2,3,4,5,6-pentamethylphenyl)sulfonyl]amino]-2-quinazolinepropanoic Acid], the IC50 was 18 nM in assay [1] and 77 nM in assay [2].

For `COc1cccc([C@@H](CC(=O)O)c2nc3ccc(/C=C/CNc4ccccn4)cc3c(=O)[nH]2)c1` [Compound 17, (βR)-3,4-dihydro-β-(3-methoxyphenyl)-4-oxo-6-[(1E)-3-(2-pyridinylamino)-1-propenyl]-2-quinazolinepropanoic Acid], the figures for the IC50 in assay [1] and in assay [2] were above 50000 nM and 18000 nM, respectively.

For the compound `CC(C)(C)c1ccc(S(=O)(=O)N[C@@H](Cc2nc3ccc(/C=C/CNc4ccccn4)cc3c(=O)[nH]2)C(=O)O)cc1` [Compound 23, α-[[[4-(1,1-dimethylethyl)phenyl]sulfonyl]amino]-(αS)-3,4-dihydro-4-oxo-6-[(1E)-3-(2-pyridinylamino)-1-propenyl]-2-quinazolinepropanoic acid], the IC50 in assay [2] stood at 6400 nM.

Regarding `Cc1c(C)c(C)c(S(=O)(=O)N[C@@H](Cc2nc3ccc(/C=C/CNC(=O)NCCc4ccccc4)cc3c(=O)[nH]2)C(=O)O)c(C)c1C` [Compound 80, (αS)-3,4-dihydro-4-oxo-α-[[(2,3,4,5,6-pentamethylphenyl)sulfonyl]amino]-6-[(1E)-3-[[[(2-phenylethyl)amino]carbonyl]amino]-1-propenyl]-2-quinazolinepropanoic acid], the IC50 in assay [2] came to 2700 nM.
